Measured values as given in PubChem BioAssay (NCI).
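Each compound was tested at five concentrations against cells in 96-well plates for 48 hours. TGI: total growth inhibition.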

How the values were obtained:
Test in all cases: NCI tumour cell line growth inhibition, 48 h
[1] = tested on: 786-0 renal
[2] = tested on: A549 NSCLC
[3] = tested on: NCI-H226 lung
[4] = tested on: BT-549 breast
[5] = tested on: SK-OV-3 ovarian
[6] = tested on: ACHN renal
[7] = tested on: CCRF-CEM leukemia
[8] = tested on: COLO 205 colon
[9] = tested on: T-47D breast
[10] = tested on: LOX IMVI melanoma
[11] = tested on: M14 melanoma
[12] = tested on: MDA-N
[13] = tested on: HL-60(TB) leukemia
[14] = tested on: OVCAR-5 ovarian
[15] = tested on: HOP-62 NSCLC
[16] = tested on: OVCAR-3 ovarian
[17] = tested on: SF-295 CNS
[18] = tested on: IGROV1 ovarian
[19] = tested on: SW-620 colon
[20] = tested on: TK-10 renal
[21] = tested on: RPMI-8226 leukemia
[22] = tested on: MCF7 breast
[23] = tested on: SK-MEL-28 melanoma
[24] = tested on: NCI-H23 lung
[25] = tested on: SN12C renal
[26] = tested on: EKVX NSCLC
[27] = tested on: HOP-92 NSCLC
[28] = tested on: HCT-116 colon
[29] = tested on: HS 578T breast
[30] = tested on: CAKI-1 renal
[31] = tested on: MOLT-4 leukemia
[32] = tested on: HT29 colon
[33] = tested on: HCT-15 colon
[34] = tested on: SK-MEL-5 melanoma
[35] = tested on: UO-31 renal
[36] = tested on: SF-539 CNS
[37] = tested on: KM12 colon
[38] = tested on: SK-MEL-2 melanoma
[39] = tested on: SNB-19 CNS
[40] = tested on: MDA-MB-231 breast
[41] = tested on: A498 renal
[42] = tested on: PC-3 prostate
[43] = tested on: OVCAR-4 ovarian
[44] = tested on: K-562 leukemia
[45] = tested on: UACC-257 melanoma
[46] = tested on: DU-145 prostate
[47] = tested on: OVCAR-8 ovarian
[48] = tested on: SR leukemia
[49] = tested on: MALME-3M melanoma
[50] = tested on: U251 CNS
[51] = tested on: MDA-MB-435
[52] = tested on: UACC-62 melanoma
[53] = tested on: SF-268 CNS
[54] = tested on: NCI/ADR-RES ovarian
[55] = tested on: NCI-H522 lung
[56] = tested on: SNB-75 CNS
[57] = tested on: RXF 393 renal
[58] = tested on: NCI-H460 lung
[59] = tested on: HCC-2998 colon

Measured: TGI

CCOc1cc(C(c2c(O)c3ccccc3oc2=O)c2c(O)c3ccccc3oc2=O)ccc1OC
39.9 µM: [15]
34.6 µM: [45]
65.9 µM: [32]
45.8 µM: [10] | [35]
32.9 µM: [5]
31.9 µM: [6] | [40]
38.3 µM: [9]
34.1 µM: [43]
44.3 µM: [26]
98.9 µM: [31]
47.6 µM: [33]
73.3 µM: [54]
43.7 µM: [22]
30.5 µM: [30]
32.8 µM: [27]
38.9 µM: [11] | [41]
77.5 µM: [29]
40.3 µM: [25]
32.1 µM: [20]
59.1 µM: [3]
41.7 µM: [17]
37.6 µM: [46]
36.3 µM: [55]
44.6 µM: [34]
29.5 µM: [50]
> 100 µM: [2] | [7] | [19] | [44] | [48]
42.4 µM: [47]
32.7 µM: [18]
42.6 µM: [36]
36.4 µM: [8]
32 µM: [51]
52.6 µM: [24]
61.8 µM: [39]
38.8 µM: [53]
33.3 µM: [16] | [42]
72.2 µM: [23]
52.4 µM: [13]
36.6 µM: [12]
34.8 µM: [49]
89.9 µM: [21]
33.2 µM: [52]
42.2 µM: [38]
41.4 µM: [4]
40.1 µM: [1] | [14]
36.5 µM: [37]
37.9 µM: [28]

CC1=CC(=O)C(=C(C)C)CC1
not listed: [8] | [19] | [21] | [27] | [36] | [38] | [41] | [59]
> 100 µM: all other assays above

CCOC(=O)c1nc2ccccc2nc1Nc1ccc(Cl)c(Cl)c1
70.9 µM: [30]
93.9 µM: [49]
68.4 µM: [56]
83.2 µM: [52]
49.5 µM: [4]
47.1 µM: [5]
44.5 µM: [27]
65.5 µM: [34]
63 µM: [15]
not listed: [3] | [7] | [10] | [17] | [19] | [41] | [42] | [45] | [57]
> 100 µM: all other assays above

O=c1n(N=S(=O)(c2ccccc2)c2ccccc2)c(=O)n2n1C1C=CC2CC1
not listed: [43] | [49] | [55] | [57] | [59]
> 100 µM: all other assays above

O=P(O)(O)OC1OC(CO)C(O)C(O)C1O (centres undefined)
not listed: [3] | [8] | [31] | [36] | [42]
> 100 µM: all other assays above
